Reference: patent publication US20040077697A1, “2-Acylaminothiazole derivative or its salt” (priority 2001, published 2004)

Columns and labels:
human CD34+ cell = test: Megakaryocyte colony formation promoting action; assay type: cell-based; settings: MegaCult-C, 10 to 14 days, colonies per well, average of three
Procedure: <Megakaryocyte Colony Formation Promoting Action>
A human CD34^+ cell was cultured at 37° C. for 10 to 14 days in the presence of a test compound in a 2-well chamber slide by using MegaCult™-C (produced by StemCell Technologies). According to the manufacturer's instructions, the slide was dehydrated, fixed, and then stained with an anti-glycoprotein IIb/IIIa antibody. A colony containing three or more of the glycoprotein IIb/IIIa positive megakaryocyte cells was defined as one colony, and the number of colonies per well was microscopically measured. The assay was replicated thrice, and an average value was evaluated as the number of megakaryocyte colonies.

Compound | melting point | Number of megakaryocyte colonies (human CD34+ cell; test compound 0.3 μM) | Number of megakaryocyte colonies (human CD34+ cell; test compound 1.0 μM) | Number of megakaryocyte colonies (human CD34+ cell; test compound 3.0 μM)
COc1cc(C(=O)Nc2nc(-c3ccc(F)cc3)c(N3CCN(C4CCCCC4)CC3)s2)ccn1 [Example 2, N-[5-(4-cyclohexylpiperazin-1-yl)-4-(4-fluorophenyl)thiazol-2-yl]-2-methoxyi sonicotinamide] | 263 to 266 °C | 5.2 | 19.0 | 34.8
Cl.O=C(Nc1nc(-c2ccc(F)cc2)c(N2CCN(C3CCCCC3)CC2)s1)c1ccc(O)c(Cl)c1 | 270 to 272 °C (dec.) |  |  | 
COc1cc(OC)cc(C(=O)Nc2nc(-c3ccccc3)c(N3CCOCC3)s2)c1.Cl | 169 to 172 °C |  |  | 
